Data taken from PubChem BioAssay (NCI).
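Here, GI50 denotes the concentration required for 50% inhibition of growth. At the TGI there is no net growth.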

Experiments:
Assay in all cases: NCI anticancer screen, dose series, 384-well format
[1] = system: LOX IMVI melanoma
[2] = system: MDA-MB-468 breast
[3] = system: KM12 colon
[4] = system: EKVX NSCLC
[5] = system: ACHN renal
[6] = system: OVCAR-3 ovarian
[7] = system: HS 578T breast
[8] = system: T-47D breast
[9] = system: OVCAR-8 ovarian
[10] = system: HOP-92 NSCLC
[11] = system: UACC-62 melanoma
[12] = system: SF-539 CNS
[13] = system: OVCAR-5 ovarian
[14] = system: NCI-H460 NSCLC
[15] = system: OVCAR-4 ovarian
[16] = system: A498 renal
[17] = system: CAKI-1 renal
[18] = system: SK-MEL-5 melanoma
[19] = system: SN12C renal
[20] = system: SF-295 CNS
[21] = system: U251 glioblastoma
[22] = system: COLO 205 colon
[23] = system: NCI-H322M lung
[24] = system: HOP-62 NSCLC
[25] = system: NCI-H226 lung
[26] = system: SR leukemia
[27] = system: MOLT-4 leukemia
[28] = system: TK-10 renal
[29] = system: MALME-3M melanoma
[30] = system: SK-OV-3 ovarian
[31] = system: HCT-15 colon
[32] = system: NCI/ADR-RES ovarian
[33] = system: HCC-2998 colon
[34] = system: UACC-257 melanoma
[35] = system: PC-3 prostate
[36] = system: BT-549 breast
[37] = system: NCI-H522 lung
[38] = system: HCT-116 colon
[39] = system: IGROV1 ovarian
[40] = system: MDA-MB-435 melanoma
[41] = system: SK-MEL-28 melanoma
[42] = system: SF-268 CNS
[43] = system: DU-145 prostate
[44] = system: NCI-H23 lung
[45] = system: SNB-19 CNS
[46] = system: RXF 393 renal
[47] = system: SNB-75 CNS
[48] = system: MDA-MB-231 breast
[49] = system: M14 melanoma
[50] = system: HT29 colon
[51] = system: A549 NSCLC
[52] = system: HL-60(TB) leukemia
[53] = system: MCF7 breast
[54] = system: RPMI-8226 leukemia
[55] = system: UO-31 renal
[56] = system: 786-0 renal
[57] = system: SW-620 colon
[58] = system: K-562 leukemia

N[C@@H]1CCCN(c2c(/C=C3\SC(=O)NC3=O)cccc2-c2ccccc2)C1
GI50 [1]: 17.8 µM | TGI [1]: 31.6 µM | GI50 [2]: 14.6 µM | TGI [2]: 27.8 µM | GI50 [3]: 16.9 µM | TGI [3]: 30.8 µM | GI50 [4]: 16.4 µM | TGI [4]: 30 µM | GI50 [5]: 17.7 µM | TGI [5]: 31.7 µM | GI50 [6]: 13.1 µM | TGI [6]: 25.9 µM | GI50 [7]: 13.8 µM | TGI [7]: 26.8 µM | GI50 [8]: 15.6 µM | TGI [8]: 29 µM | GI50 [9]: 16.2 µM | TGI [9]: 29.9 µM | GI50 [10]: 11.5 µM | TGI [10]: 23.8 µM | GI50 [11]: 16.6 µM | TGI [11]: 30.4 µM | GI50 [12]: 7.38 µM | TGI [12]: 20.2 µM | GI50 [13]: 17 µM | TGI [13]: 30.8 µM | GI50 [14]: 16.8 µM | TGI [14]: 30.6 µM | GI50 [15]: 12.3 µM | TGI [15]: 25.3 µM | GI50 [16]: 16.6 µM | TGI [16]: 30.3 µM | GI50 [17]: 18.5 µM | TGI [17]: 32.8 µM | GI50 [18]: 11.4 µM | TGI [18]: 23.5 µM | GI50 [19]: 19.4 µM | TGI [19]: 33.6 µM | GI50 [20]: 6.08 µM | TGI [20]: 18.7 µM | GI50 [21]: 8.54 µM | TGI [21]: 20.8 µM | GI50 [22]: 14.1 µM | TGI [22]: 27.1 µM | GI50 [23]: 18 µM | TGI [23]: 31.9 µM | GI50 [24]: 11.7 µM | TGI [24]: 23.9 µM | GI50 [25]: 13.8 µM | TGI [25]: 26.7 µM | GI50 [26]: 1.16 µM | TGI [26]: 15.5 µM | GI50 [27]: 13.4 µM | TGI [27]: 26.3 µM | GI50 [28]: 12.3 µM | TGI [28]: 24.9 µM | GI50 [29]: 12.9 µM | TGI [29]: 25.7 µM | GI50 [30]: 14.8 µM | TGI [30]: 28.5 µM | GI50 [31]: 17.7 µM | TGI [31]: 31.7 µM | GI50 [32]: 18.1 µM | TGI [32]: 33.1 µM | GI50 [33]: 14.5 µM | TGI [33]: 27.7 µM | GI50 [34]: 15.9 µM | TGI [34]: 29.4 µM | GI50 [35]: 13.2 µM | TGI [35]: 26 µM | GI50 [36]: 1.9 µM | TGI [36]: 4.17 µM | GI50 [37]: 13.5 µM | TGI [37]: 26.4 µM | GI50 [38]: 15.4 µM | TGI [38]: 28.9 µM | GI50 [39]: 17.1 µM | TGI [39]: 31.2 µM | GI50 [40]: 15.1 µM | TGI [40]: 28.5 µM | GI50 [41]: 16.9 µM | TGI [41]: 30.7 µM | GI50 [42]: 16.8 µM | TGI [42]: 30.6 µM | GI50 [43]: 16.9 µM | TGI [43]: 30.7 µM | GI50 [44]: 16.8 µM | TGI [44]: 30.6 µM | GI50 [45]: 4.67 µM | TGI [45]: 15 µM | GI50 [46]: 17 µM | TGI [46]: 30.8 µM | GI50 [47]: 3.5 µM | TGI [47]: 12.1 µM | GI50 [48]: 14.5 µM | TGI [48]: 27.8 µM | GI50 [49]: 14.6 µM | TGI [49]: 27.8 µM | GI50 [50]: 15.2 µM | TGI [50]: 28.8 µM | GI50 [51]: 16.7 µM | TGI [51]: 30.8 µM | GI50 [52]: 1.31 µM | TGI [52]: 16.5 µM | GI50 [53]: 14.5 µM | TGI [53]: 27.8 µM | GI50 [54]: 0.543 µM | TGI [54]: 3.07 µM

Cc1c(NC(=O)OC[C@@H]2COCCN2)cn2ncnc(Nc3ccc4c(cnn4Cc4cccc(F)c4)c3)c12
GI50 [1]: 1.7 µM | TGI [1]: 3.2 µM | GI50 [2]: 0.0222 µM | TGI [2]: 0.0701 µM | GI50 [3]: 3.74 µM | TGI [3]: 13.5 µM | GI50 [4]: 1.02 µM | TGI [4]: 5.16 µM | GI50 [5]: 0.815 µM | TGI [5]: 12.7 µM | GI50 [6]: 2.67 µM | TGI [6]: 9.15 µM | GI50 [7]: 2.33 µM | TGI [7]: 5.32 µM | GI50 [8]: 0.0467 µM | TGI [8]: 1.06 µM | GI50 [9]: 4.46 µM | TGI [9]: 16.2 µM | GI50 [10]: 2.46 µM | TGI [10]: 9.57 µM | GI50 [11]: 1.91 µM | TGI [11]: 3.56 µM | GI50 [12]: 1.95 µM | TGI [12]: 3.86 µM | GI50 [13]: 3.37 µM | TGI [13]: 16.1 µM | GI50 [55]: 1.47 µM | TGI [55]: 3.73 µM | GI50 [15]: 3.75 µM | TGI [15]: 12.4 µM | GI50 [16]: 1.4 µM | TGI [16]: 3.24 µM | GI50 [17]: 1.9 µM | TGI [17]: 14.3 µM | GI50 [18]: 1.51 µM | TGI [18]: 2.9 µM | GI50 [19]: 1.96 µM | TGI [19]: 14.4 µM | GI50 [20]: 2.28 µM | TGI [20]: 4.89 µM | GI50 [21]: 1.91 µM | TGI [21]: 3.54 µM | GI50 [22]: 2.96 µM | TGI [22]: 7.54 µM | GI50 [23]: 0.363 µM | TGI [23]: 11.1 µM | GI50 [24]: 2.01 µM | TGI [24]: 9.3 µM | GI50 [56]: 1.42 µM | TGI [56]: 2.91 µM | GI50 [25]: 5.08 µM | TGI [25]: 18.1 µM | GI50 [27]: 1.69 µM | TGI [27]: 3.35 µM | GI50 [28]: 0.661 µM | TGI [28]: 3.48 µM | GI50 [29]: 2.23 µM | TGI [29]: 4.77 µM | GI50 [30]: 1.77 µM | TGI [30]: 5.72 µM | GI50 [31]: 2.19 µM | TGI [31]: 5.47 µM | GI50 [32]: 12.6 µM | TGI [32]: 25.2 µM | GI50 [57]: 3.8 µM | TGI [57]: 12 µM | GI50 [33]: 1.66 µM | TGI [33]: 3.61 µM | GI50 [34]: 2.03 µM | TGI [34]: 3.98 µM | GI50 [35]: 3 µM | TGI [35]: 7.88 µM | GI50 [36]: 2.03 µM | TGI [36]: 4.36 µM | GI50 [37]: 0.255 µM | TGI [37]: 3.82 µM | GI50 [38]: 2.35 µM | TGI [38]: 4.88 µM | GI50 [39]: 0.0935 µM | TGI [39]: 4.96 µM | GI50 [40]: 4.66 µM | TGI [40]: 13.3 µM | GI50 [41]: 2.15 µM | TGI [41]: 4.05 µM | GI50 [42]: 0.943 µM | TGI [42]: 3.78 µM | GI50 [43]: 2.44 µM | TGI [43]: 13.6 µM | GI50 [44]: 3.6 µM | TGI [44]: 12.4 µM | GI50 [45]: 3.72 µM | TGI [45]: 13.8 µM | GI50 [46]: 1.67 µM | TGI [46]: 3.34 µM | GI50 [47]: 2.96 µM | TGI [47]: 9 µM | GI50 [48]: 1.92 µM | TGI [48]: 4.65 µM | GI50 [49]: 2.08 µM | TGI [49]: 4.29 µM | GI50 [50]: 1.81 µM | TGI [50]: 3.47 µM | GI50 [51]: 2.82 µM | TGI [51]: 13.6 µM | GI50 [58]: 1.79 µM | TGI [58]: 3.32 µM | GI50 [53]: 3 µM | TGI [53]: 10.4 µM | GI50 [54]: 2.29 µM | TGI [54]: 4.19 µM

N#Cc1ccc(C(c2ccc(C#N)cc2)n2cncn2)cc1
GI50 [46]: 16.8 µM | TGI [46]: 97.8 µM
